According to patent US8802597B2, “Herbicidal pyrimidines” (E I du Pont de Nemours and Company, priority 2003, dated 2014):

How the values were obtained:
Test in all cases: Test C pre/postemergence
Type in all cases: in vivo
Details in all cases: Postemergence
[1] = test system: giant foxtail (Setaria faberii)
Procedure, shortened: (§1)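 Pre: seeds planted, sprayed same day. Post: 1- to 4-leaf plants (2–18 cm). Formulation: non-phytotoxic solvent + surfactant. Greenhouse 12–14 d; visual % control vs untreated, 0–100.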

[2] = test system: lambsquarters (Chenopodium album)
Procedure, shortened: as §1

[3] = test system: morningglory (Ipomoea coccinea)
Procedure, shortened: as §1

soybean (Glycine max) = test system: soybean (Glycine max)
Procedure, shortened: as §1

[4] = test system: goosegrass (Eleusine indica)
Procedure, shortened: as §1

[5] = test system: common ragweed (Ambrosia elatior)
Procedure, shortened: as §1

[6] = test system: velvetleaf (Abutilon theophrasti)
Procedure, shortened: as §1

[7] = test system: Surinam grass (Brachiaria decumbens)
Procedure, shortened: as §1

[8] = test system: woolly cupgrass (Eriochloa villosa)
Procedure, shortened: as §1

[9] = test system: bermudagrass (Cynodon dactylon)
Procedure, shortened: as §1

[10] = test system: yellow nutsedge (Cyperus esculentus)
Procedure, shortened: as §1

[11] = 125 g ai/ha, scale 0 to 100 (0 no effect, 100 complete control)

For `CCOC(=O)c1nc(-c2ccc(Br)cc2)nc(N)c1Cl` [Compound 94, ethyl 6-amino-2-(4-bromophenyl)-5-chloro-4-pyrimidinecarboxylate], the pest or weed control at 125 g/ha ([1]; Setaria faberi, post-emergence, 125 g ai/ha, scale 0 to 100 (0 no effect, 100 complete control), read-out: Foxtail, Giant plant response rating) was 80%, the pest or weed control at 16 g/ha ([1]; Setaria faberi, post-emergence, 16 g ai/ha, read-out: Plant response rating (scale of 0 to 100), Foxtail, Giant) was 30% and the pest or weed control at 31 g/ha ([1]; Setaria faberi, post-emergence, 31 g ai/ha, read-out: Plant response rating (scale of 0 to 100), Foxtail, Giant) was 65%. It also gave a pest or weed control at 62 g/ha ([1]; Setaria faberi, post-emergence, 62 g ai/ha, read-out: Plant response rating (scale of 0 to 100), Foxtail, Giant) of 80%, a pest or weed control at 16 g/ha ([2]; Chenopodium album, post-emergence, 16 g ai/ha, read-out: Plant response rating (scale of 0 to 100), Lambsquarters) of 95% and a pest or weed control at 31 g/ha ([2]; Chenopodium album, post-emergence, 31 g ai/ha, read-out: Plant response rating (scale of 0 to 100), Lambsquarters) of 95%. It also gave a pest or weed control at 62 g/ha ([2]; Chenopodium album, post-emergence, 62 g ai/ha, read-out: Plant response rating (scale of 0 to 100), Lambsquarters) of 95%, a pest or weed control at 125 g/ha ([2]; Chenopodium album, post-emergence, 125 g ai/ha, scale 0 to 100 (0 no effect, 100 complete control), read-out: Lambsquarters plant response rating) of 100% and a pest or weed control at 16 g/ha ([3]; Ipomoea, post-emergence, 16 g ai/ha, read-out: Plant response rating (scale of 0 to 100), Morningglory) of 60%. The pest or weed control at 31 g/ha ([3]; Ipomoea, post-emergence, 31 g ai/ha, read-out: Plant response rating (scale of 0 to 100), Morningglory) was 80%, the pest or weed control at 62 g/ha ([3]; Ipomoea, post-emergence, 62 g ai/ha, read-out: Plant response rating (scale of 0 to 100), Morningglory) was 90% and the pest or weed control at 125 g/ha ([3]; Ipomoea, post-emergence, 125 g ai/ha, scale 0 to 100 (0 no effect, 100 complete control), read-out: Morningglory plant response rating) was 100%. For the same compound, the plant injury at 16 g/ha (soybean (Glycine max); Glycine max, post-emergence, 16 g ai/ha, read-out: Plant response rating (scale of 0 to 100), Soybean) was 100%, the plant injury at 31 g/ha (soybean (Glycine max); Glycine max, post-emergence, 31 g ai/ha, read-out: Plant response rating (scale of 0 to 100), Soybean) was 100% and the plant injury at 62 g/ha (soybean (Glycine max); Glycine max, post-emergence, 62 g ai/ha, read-out: Plant response rating (scale of 0 to 100), Soybean) was 100%. The plant injury at 125 g/ha (soybean (Glycine max); Glycine max, post-emergence, 125 g ai/ha, scale 0 to 100 (0 no effect, 100 complete control), read-out: Soybean plant response rating) was 100%, the pest or weed control at 16 g/ha ([4]; Eleusine indica, post-emergence, 16 g ai/ha, read-out: Plant response rating (scale of 0 to 100), Goosegrass) was 35% and the pest or weed control at 31 g/ha ([4]; Eleusine indica, post-emergence, 31 g ai/ha, read-out: Plant response rating (scale of 0 to 100), Goosegrass) was 60%. It also gave a pest or weed control at 62 g/ha ([4]; Eleusine indica, post-emergence, 62 g ai/ha, read-out: Plant response rating (scale of 0 to 100), Goosegrass) of 80%, a pest or weed control at 125 g/ha ([4]; Eleusine indica, post-emergence, 125 g ai/ha, scale 0 to 100 (0 no effect, 100 complete control), read-out: Goosegrass plant response rating) of 80% and a pest or weed control at 16 g/ha ([5]; Ambrosia artemisiifolia, post-emergence, 16 g ai/ha, read-out: Plant response rating (scale of 0 to 100), Ragweed) of 90%. It also gave a pest or weed control at 31 g/ha ([5]; Ambrosia artemisiifolia, post-emergence, 31 g ai/ha, read-out: Plant response rating (scale of 0 to 100), Ragweed) of 90%, a pest or weed control at 62 g/ha ([5]; Ambrosia artemisiifolia, post-emergence, 62 g ai/ha, read-out: Plant response rating (scale of 0 to 100), Ragweed) of 95% and a pest or weed control at 125 g/ha ([5]; Ambrosia artemisiifolia, post-emergence, 125 g ai/ha, scale 0 to 100 (0 no effect, 100 complete control), read-out: Ragweed plant response rating) of 100%. It also gave a pest or weed control at 16 g/ha ([6]; Abutilon theophrasti, post-emergence, 16 g ai/ha, read-out: Plant response rating (scale of 0 to 100), Velvetleaf) of 75%, a pest or weed control at 31 g/ha ([6]; Abutilon theophrasti, post-emergence, 31 g ai/ha, read-out: Plant response rating (scale of 0 to 100), Velvetleaf) of 90% and a pest or weed control at 62 g/ha ([6]; Abutilon theophrasti, post-emergence, 62 g ai/ha, read-out: Plant response rating (scale of 0 to 100), Velvetleaf) of 95%. The pest or weed control at 125 g/ha ([6]; Abutilon theophrasti, post-emergence, 125 g ai/ha, scale 0 to 100 (0 no effect, 100 complete control), read-out: Velvetleaf plant response rating) was 95%, the pest or weed control at 125 g/ha ([7]; Urochloa decumbens, post-emergence, 125 g ai/ha, scale 0 to 100 (0 no effect, 100 complete control), read-out: Surinam Grass plant response rating) was 100% and the pest or weed control at 16 g/ha ([7]; Urochloa decumbens, post-emergence, 16 g ai/ha, read-out: Plant response rating (scale of 0 to 100), Surinam Grass) was 50%. The pest or weed control at 31 g/ha ([7]; Urochloa decumbens, post-emergence, 31 g ai/ha, read-out: Plant response rating (scale of 0 to 100), Surinam Grass) was 60%, the pest or weed control at 62 g/ha ([7]; Urochloa decumbens, post-emergence, 62 g ai/ha, read-out: Plant response rating (scale of 0 to 100), Surinam Grass) was 90% and the pest or weed control at 16 g/ha ([8]; Eriochloa villosa, post-emergence, 16 g ai/ha, read-out: Plant response rating (scale of 0 to 100), Cupgrass, Woolly) was 60%. It also gave a pest or weed control at 31 g/ha ([8]; Eriochloa villosa, post-emergence, 31 g ai/ha, read-out: Plant response rating (scale of 0 to 100), Cupgrass, Woolly) of 80%, a pest or weed control at 62 g/ha ([8]; Eriochloa villosa, post-emergence, 62 g ai/ha, read-out: Plant response rating (scale of 0 to 100), Cupgrass, Woolly) of 90% and a pest or weed control at 125 g/ha ([8]; Eriochloa villosa, post-emergence, 125 g ai/ha, scale 0 to 100 (0 no effect, 100 complete control), read-out: Cupgrass, Woolly plant response rating) of 90%. It also gave a pest or weed control at 16 g/ha ([9]; Cynodon dactylon, post-emergence, 16 g ai/ha, read-out: Plant response rating (scale of 0 to 100), Bermudagrass) of 60%, a pest or weed control at 31 g/ha ([9]; Cynodon dactylon, post-emergence, 31 g ai/ha, read-out: Plant response rating (scale of 0 to 100), Bermudagrass) of 70% and a pest or weed control at 62 g/ha ([9]; Cynodon dactylon, post-emergence, 62 g ai/ha, scale 0 to 100 (0 no effect, 100 complete control), read-out: Bermudagrass plant response rating) of 75%. It also gave a pest or weed control at 125 g/ha ([9]; Cynodon dactylon, post-emergence, 125 g ai/ha, scale 0 to 100 (0 no effect, 100 complete control), read-out: Bermudagrass plant response rating) of 80%, a pest or weed control at 16 g/ha ([10]; Cyperus, post-emergence, 16 g ai/ha, read-out: Plant response rating (scale of 0 to 100), Nutsedge, Yellow) of 55% and a pest or weed control at 31 g/ha ([10]; Cyperus, post-emergence, 31 g ai/ha, read-out: Plant response rating (scale of 0 to 100), Nutsedge, Yellow) of 60%. It also gave a pest or weed control at 62 g/ha ([10]; Cyperus, post-emergence, 62 g ai/ha, read-out: Plant response rating (scale of 0 to 100), Nutsedge, Yellow) of 70% and a pest or weed control at 125 g/ha ([10]; Cyperus, post-emergence, 125 g ai/ha, scale 0 to 100 (0 no effect, 100 complete control), read-out: Nutsedge, Yellow plant response rating) of 75%.
With `CCOC(=O)c1nc(-c2ccc(I)cc2)nc(N)c1Cl` [Compound 133] the “Plant response rating (scale of 0 to 100), Foxtail, Giant” value ([1]; 16 g ai/ha) was 15, the “Plant response rating (scale of 0 to 100), Foxtail, Giant” value ([1]; 31 g ai/ha) was 60 and the “Plant response rating (scale of 0 to 100), Foxtail, Giant” value ([1]; 62 g ai/ha) was 70. For the same compound, the “Foxtail, Giant plant response rating” value [1, 11] was 75, the “Plant response rating (scale of 0 to 100), Lambsquarters” value ([2]; 16 g ai/ha) was 95 and the “Plant response rating (scale of 0 to 100), Lambsquarters” value ([2]; 31 g ai/ha) was 95. For the same compound, the “Plant response rating (scale of 0 to 100), Lambsquarters” value ([2]; 62 g ai/ha) was 95, the “Lambsquarters plant response rating” value [2, 11] was 100 and the “Plant response rating (scale of 0 to 100), Morningglory” value ([3]; 16 g ai/ha) was 80. The “Plant response rating (scale of 0 to 100), Morningglory” value ([3]; 31 g ai/ha) was 90, the “Plant response rating (scale of 0 to 100), Morningglory” value ([3]; 62 g ai/ha) was 100 and the “Morningglory plant response rating” value [3, 11] was 100. The “Plant response rating (scale of 0 to 100), Soybean” value (soybean (Glycine max); 16 g ai/ha) was 95, the “Plant response rating (scale of 0 to 100), Soybean” value (soybean (Glycine max); 31 g ai/ha) was 95 and the “Plant response rating (scale of 0 to 100), Soybean” value (soybean (Glycine max); 62 g ai/ha) was 100. For the same compound, the “Soybean plant response rating” value (soybean (Glycine max); [11]) was 100, the “Plant response rating (scale of 0 to 100), Goosegrass” value ([4]; 16 g ai/ha) was 15 and the “Plant response rating (scale of 0 to 100), Goosegrass” value ([4]; 31 g ai/ha) was 55. For the same compound, the “Plant response rating (scale of 0 to 100), Goosegrass” value ([4]; 62 g ai/ha) was 65, the “Goosegrass plant response rating” value [4, 11] was 70 and the “Plant response rating (scale of 0 to 100), Ragweed” value ([5]; 16 g ai/ha) was 80. The “Plant response rating (scale of 0 to 100), Ragweed” value ([5]; 31 g ai/ha) was 80, the “Plant response rating (scale of 0 to 100), Ragweed” value ([5]; 62 g ai/ha) was 85 and the “Ragweed plant response rating” value [5, 11] was 95. For the same compound, the “Plant response rating (scale of 0 to 100), Velvetleaf” value ([6]; 16 g ai/ha) was 80, the “Plant response rating (scale of 0 to 100), Velvetleaf” value ([6]; 31 g ai/ha) was 85 and the “Plant response rating (scale of 0 to 100), Velvetleaf” value ([6]; 62 g ai/ha) was 85. For the same compound, the “Velvetleaf plant response rating” value [6, 11] was 95, the “Plant response rating (scale of 0 to 100), Surinam Grass” value ([7]; 16 g ai/ha) was 35 and the “Plant response rating (scale of 0 to 100), Surinam Grass” value ([7]; 31 g ai/ha) was 45. For the same compound, the “Plant response rating (scale of 0 to 100), Surinam Grass” value ([7]; 62 g ai/ha) was 55, the “Surinam Grass plant response rating” value [7, 11] was 70 and the “Plant response rating (scale of 0 to 100), Cupgrass, Woolly” value ([8]; 16 g ai/ha) was 35. For the same compound, the “Plant response rating (scale of 0 to 100), Cupgrass, Woolly” value ([8]; 31 g ai/ha) was 50, the “Plant response rating (scale of 0 to 100), Cupgrass, Woolly” value ([8]; 62 g ai/ha) was 60 and the “Cupgrass, Woolly plant response rating” value [8, 11] was 70. For the same compound, the “Plant response rating (scale of 0 to 100), Bermudagrass” value ([9]; 16 g ai/ha) was 50, the “Plant response rating (scale of 0 to 100), Bermudagrass” value ([9]; 31 g ai/ha) was 85 and the “Bermudagrass plant response rating” value ([9]; 62 g ai/ha, scale 0 to 100 (0 no effect, 100 complete control)) was 85. For the same compound, the “Bermudagrass plant response rating” value [9, 11] was 85, the “Plant response rating (scale of 0 to 100), Nutsedge, Yellow” value ([10]; 16 g ai/ha) was 60 and the “Plant response rating (scale of 0 to 100), Nutsedge, Yellow” value ([10]; 31 g ai/ha) was 75. For the same compound, the “Plant response rating (scale of 0 to 100), Nutsedge, Yellow” value ([10]; 62 g ai/ha) was 75 and the “Nutsedge, Yellow plant response rating” value [10, 11] was 80.
